From the supplement of paper PMC10307832

Experiments:
Assay in all cases: relative viability (nuclei count vs DMSO), 5 days (fraction); higher = more cells survive
[1] = compound: C1=CC=C2C(=C1)C=CC(=C2SSC3=C(C=CC4=CC=CC=C43)O)O [IPA-3] + C[C@]1(O)C[C@@H](c2nc(-c3ccc4ccc(-c5ccccc5)nc4c3)c3c(N)nccn32)C1 [Linsitinib] (partner 1 µM)
How it was run: (§1)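 Lung cancer cell lines were seeded in 1536-well plates and dosed by pin tool the next day, with either a single drug or a fixed anchor-drug dose combined with five library-drug doses (not always all listed) spaced in √10 steps. Five days later, one step fixed the cells and stained their nuclei (final 0.05% Triton X-100, 1% formaldehyde, 1 ug/ml Hoechst), and nuclei were counted on 4× images. Relative viability is the nuclei count in treated wells divided by the count in vehicle wells, and each value is the median of duplicate plates.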

[2] = compound: Cc1ccc(-n2nc(C(C)(C)C)cc2NC(=O)Nc2ccc(OCCN3CCOCC3)c3ccccc23)cc1 [Doramapimod] + Nc1ncn([C@H]2C[C@H](O)[C@@H](CO)O2)c(=O)n1 [Decitabine] (partner 2 µM)
How it was run: as §1

[3] = compound: Cc1ccc(-n2nc(C(C)(C)C)cc2NC(=O)Nc2ccc(OCCN3CCOCC3)c3ccccc23)cc1 [Doramapimod] + COc1cc2c(Oc3ccc(NC(=O)C4(C(=O)Nc5ccc(F)cc5)CC4)cc3F)ccnc2cc1OCCCN1CCOCC1 [Foretinib] (partner 0.25 µM)
How it was run: as §1

[4] = compound: Cn1c(Nc2ccc(C(F)(F)F)cc2)nc2cc(Oc3ccnc(-c4ncc(C(F)(F)F)[nH]4)c3)ccc21 [RAF265] + Cc1nc(NC(=O)N2CCC[C@H]2C(N)=O)sc1-c1ccnc(C(C)(C)C(F)(F)F)c1 [Alpelisib] (partner 2 µM)
How it was run: as §1

Cell Line: NCI-H1437
- relative viability ([1]; first compound 0.2 µM): 1.25
- relative viability ([1]; first compound 0.6325 µM): 0.933
- relative viability ([1]; first compound 2 µM): 0.988
- relative viability ([1]; first compound 6.325 µM): 0.975
- relative viability ([1]; first compound 20 µM): 1.3
- relative viability ([2]; first compound 0.02 µM): 0.541
- relative viability ([2]; first compound 0.06325 µM): 0.554
- relative viability ([2]; first compound 0.2 µM): 0.647
- relative viability ([2]; first compound 0.6325 µM): 0.624
- relative viability ([2]; first compound 2 µM): 0.598
- relative viability ([3]; first compound 0.02 µM): 1.37
- relative viability ([3]; first compound 0.06325 µM): 1.39
- relative viability ([3]; first compound 0.2 µM): 1.35
- relative viability ([3]; first compound 0.6325 µM): 1.38
- relative viability ([3]; first compound 2 µM): 1.2
- relative viability ([4]; first compound 0.01 µM): 0.956
- relative viability ([4]; first compound 0.03162 µM): 1.02
- relative viability ([4]; first compound 0.1 µM): 0.973
- relative viability ([4]; first compound 0.3162 µM): 0.944
- relative viability ([4]; first compound 1 µM): 0.778

Cell Line: NCI-H838
- relative viability ([1]; first compound 0.2 µM): 1.34
- relative viability ([1]; first compound 0.6325 µM): 0.983
- relative viability ([1]; first compound 2 µM): 1.1
- relative viability ([1]; first compound 6.325 µM): 0.978
- relative viability ([1]; first compound 20 µM): 1.13
- relative viability ([2]; first compound 0.02 µM): 0.455
- relative viability ([2]; first compound 0.06325 µM): 0.477
- relative viability ([2]; first compound 0.2 µM): 0.499
- relative viability ([2]; first compound 0.6325 µM): 0.476
- relative viability ([2]; first compound 2 µM): 0.472
- relative viability ([3]; first compound 0.02 µM): 1.01
- relative viability ([3]; first compound 0.06325 µM): 0.993
- relative viability ([3]; first compound 0.2 µM): 1.08
- relative viability ([3]; first compound 0.6325 µM): 1.21
- relative viability ([3]; first compound 2 µM): 1.01
- relative viability ([4]; first compound 0.01 µM): 1.03
- relative viability ([4]; first compound 0.03162 µM): 0.974
- relative viability ([4]; first compound 0.1 µM): 1.01
- relative viability ([4]; first compound 0.3162 µM): 1.06
- relative viability ([4]; first compound 1 µM): 0.692

Cell Line: NCI-H1666
- relative viability ([1]; first compound 0.2 µM): 0.865
- relative viability ([1]; first compound 0.6325 µM): 0.87
- relative viability ([1]; first compound 2 µM): 0.857
- relative viability ([1]; first compound 6.325 µM): 0.763
- relative viability ([1]; first compound 20 µM): 0.693
- relative viability ([2]; first compound 0.02 µM): 0.768
- relative viability ([2]; first compound 0.06325 µM): 0.792
- relative viability ([2]; first compound 0.2 µM): 0.83
- relative viability ([2]; first compound 0.6325 µM): 0.659
- relative viability ([2]; first compound 2 µM): 0.755
- relative viability ([3]; first compound 0.02 µM): 0.948
- relative viability ([3]; first compound 0.06325 µM): 1.05
- relative viability ([3]; first compound 0.2 µM): 1.02
- relative viability ([3]; first compound 0.6325 µM): 1.08
- relative viability ([3]; first compound 2 µM): 0.971
- relative viability ([4]; first compound 0.01 µM): 1.1
- relative viability ([4]; first compound 0.03162 µM): 1.11
- relative viability ([4]; first compound 0.1 µM): 0.942
- relative viability ([4]; first compound 0.3162 µM): 0.815
- relative viability ([4]; first compound 1 µM): 0.547

Cell Line: NCI-H1944
- relative viability ([1]; first compound 0.2 µM): 1.2
- relative viability ([1]; first compound 0.6325 µM): 1.12
- relative viability ([1]; first compound 2 µM): 1.23
- relative viability ([1]; first compound 6.325 µM): 1.48
- relative viability ([1]; first compound 20 µM): 1.3
- relative viability ([2]; first compound 0.02 µM): 0.459
- relative viability ([2]; first compound 0.06325 µM): 0.491
- relative viability ([2]; first compound 0.2 µM): 0.447
- relative viability ([2]; first compound 0.6325 µM): 0.423
- relative viability ([2]; first compound 2 µM): 0.414
- relative viability ([3]; first compound 0.02 µM): 0.782
- relative viability ([3]; first compound 0.06325 µM): 0.918
- relative viability ([3]; first compound 0.2 µM): 0.883
- relative viability ([3]; first compound 0.6325 µM): 0.957
- relative viability ([3]; first compound 2 µM): 0.715
- relative viability ([4]; first compound 0.01 µM): 0.896
- relative viability ([4]; first compound 0.03162 µM): 0.841
- relative viability ([4]; first compound 0.1 µM): 0.646
- relative viability ([4]; first compound 0.3162 µM): 0.496
- relative viability ([4]; first compound 1 µM): 0.442

Cell Line: NCI-H2023
- relative viability ([1]; first compound 0.2 µM): 0.85
- relative viability ([1]; first compound 0.6325 µM): 0.681
- relative viability ([1]; first compound 2 µM): 0.841
- relative viability ([1]; first compound 6.325 µM): 0.735
- relative viability ([1]; first compound 20 µM): 0.921
- relative viability ([2]; first compound 0.02 µM): 0.233
- relative viability ([2]; first compound 0.06325 µM): 0.211
- relative viability ([2]; first compound 0.2 µM): 0.263
- relative viability ([2]; first compound 0.6325 µM): 0.218
- relative viability ([2]; first compound 2 µM): 0.216
- relative viability ([3]; first compound 0.02 µM): 0.833
- relative viability ([3]; first compound 0.06325 µM): 0.732
- relative viability ([3]; first compound 0.2 µM): 0.691
- relative viability ([3]; first compound 0.6325 µM): 0.823
- relative viability ([3]; first compound 2 µM): 0.605
- relative viability ([4]; first compound 0.01 µM): 0.554
- relative viability ([4]; first compound 0.03162 µM): 0.625
- relative viability ([4]; first compound 0.1 µM): 0.721
- relative viability ([4]; first compound 0.3162 µM): 0.639
- relative viability ([4]; first compound 1 µM): 0.508

Cell Line: NCI-H1755
- relative viability ([1]; first compound 0.2 µM): 1.03
- relative viability ([1]; first compound 0.6325 µM): 0.94
- relative viability ([1]; first compound 2 µM): 0.981
- relative viability ([1]; first compound 6.325 µM): 0.984
- relative viability ([1]; first compound 20 µM): 1.04
- relative viability ([2]; first compound 0.02 µM): 0.778
- relative viability ([2]; first compound 0.06325 µM): 0.753
- relative viability ([2]; first compound 0.2 µM): 0.711
- relative viability ([2]; first compound 0.6325 µM): 0.666
- relative viability ([2]; first compound 2 µM): 0.706
- relative viability ([3]; first compound 0.02 µM): 0.984
- relative viability ([3]; first compound 0.06325 µM): 0.928
- relative viability ([3]; first compound 0.2 µM): 0.93
- relative viability ([3]; first compound 0.6325 µM): 0.892
- relative viability ([3]; first compound 2 µM): 0.866
- relative viability ([4]; first compound 0.01 µM): 0.966
- relative viability ([4]; first compound 0.03162 µM): 0.864
- relative viability ([4]; first compound 0.1 µM): 0.779
- relative viability ([4]; first compound 0.3162 µM): 0.486
- relative viability ([4]; first compound 1 µM): 0.408

Cell Line: NCI-H23
- relative viability ([1]; first compound 0.2 µM): 0.613
- relative viability ([1]; first compound 0.6325 µM): 0.667
- relative viability ([1]; first compound 2 µM): 0.522
- relative viability ([1]; first compound 6.325 µM): 0.603
- relative viability ([1]; first compound 20 µM): 0.645
- relative viability ([2]; first compound 0.02 µM): 0.359
- relative viability ([2]; first compound 0.06325 µM): 0.288
- relative viability ([2]; first compound 0.2 µM): 0.358
- relative viability ([2]; first compound 0.6325 µM): 0.329
- relative viability ([2]; first compound 2 µM): 0.265
- relative viability ([3]; first compound 0.02 µM): 0.952
- relative viability ([3]; first compound 0.06325 µM): 1.05
- relative viability ([3]; first compound 0.2 µM): 0.947
- relative viability ([3]; first compound 0.6325 µM): 1.05
- relative viability ([3]; first compound 2 µM): 0.95
- relative viability ([4]; first compound 0.01 µM): 0.738
- relative viability ([4]; first compound 0.03162 µM): 0.601
- relative viability ([4]; first compound 0.1 µM): 0.643
- relative viability ([4]; first compound 0.3162 µM): 0.416
- relative viability ([4]; first compound 1 µM): 0.222

Cell Line: ABC-1
- relative viability ([1]; first compound 0.2 µM): 0.862
- relative viability ([1]; first compound 0.6325 µM): 0.752
- relative viability ([1]; first compound 6.325 µM): 0.715
- relative viability ([1]; first compound 20 µM): 1.06
- relative viability ([2]; first compound 0.02 µM): 1
- relative viability ([2]; first compound 0.06325 µM): 1.19
- relative viability ([2]; first compound 0.2 µM): 0.983
- relative viability ([2]; first compound 0.6325 µM): 0.959
- relative viability ([2]; first compound 2 µM): 1.01
- relative viability ([3]; first compound 0.02 µM): 1.39
- relative viability ([3]; first compound 0.06325 µM): 1.11
- relative viability ([3]; first compound 0.2 µM): 1.05
- relative viability ([3]; first compound 0.6325 µM): 0.919
- relative viability ([3]; first compound 2 µM): 0.881
- relative viability ([4]; first compound 0.01 µM): 1.13
- relative viability ([4]; first compound 0.03162 µM): 1.01
- relative viability ([4]; first compound 0.1 µM): 1.01
- relative viability ([4]; first compound 0.3162 µM): 1.05
- relative viability ([4]; first compound 1 µM): 0.619
